Experimental data from US20210130346A1, “Bromodomain Inhibitors” (AbbVie Inc., priority 2017, published 2021).

Each compound was assayed against BRD4 (BDI_K57-E168) (Homo sapiens, UniProt O60885) (assay: TR-FRET bromodomain binding assay, BRD4 first bromodomain (BDI)). Conditions: mean Ki; 12 nM His tagged BRD4 (BDI_K57-E168), 100 nM Alexa647 probe; Ki calculated from IC50, probe Kd and probe concentration.
Description: A time-resolved fluorescence resonance energy transfer (TR-FRET) assay was used to determine the affinities of compounds of the Examples listed in Table 1 for each bromodomain of BRD4. […] An Alexa647-labeled BET-inhibitor was used as the fluorescent probe in the assay.
Compound dilution series were prepared in DMSO via an approximately 3-fold serial dilution. Compound dilutions were added directly into white, low-volume assay plates (Perkin Elmer Proxiplate 384 Plus# 6008280) using a Labcyte Echo in conjunction with Labcyte Access and Thermo Multidrop CombinL robotics. Compounds were then suspended in eight microliters (μL) of assay buffer (20 mM Sodium Phosphate, pH 6.0, 50 mM NaCl, 1 mM Ethylenediaminetetraacetic acid disodium salt dihydrate, 0.01% Triton X-100, 1 mM DL-Dithiothreitol) containing His-tagged bromodomain, Europium-conjugated anti-His antibody (Invitrogen PV5596) and Alexa-647-conjugated probe.
After a one-hour equilibration at room temperature, TR-FRET ratios were determined using an Envision multilabel plate reader (Ex 340, Em 495/520).
TR-FRET data were normalized to the means of 24 no-compound controls (“high”) and 8 controls containing 1 μM un-labeled probe (“low”). Percent inhibition was plotted as a function of compound concentration and the data were fit with the 4 parameter logistic equation to obtain IC50s. Inhibition constants (Ki) were calculated from the IC50s, probe Kd and probe concentration.

Row | Compound | Ki [nM]
1 | CN1C(=O)[C@@]2(C[C@H]2c2cn(C)c(=O)c3[nH]c(-c4cnn(C)c4)cc23)c2ccccc21 (racemic) [Example 33, rac-(1R,2S)-1′-methyl-2-[6-methyl-2-(1-methyl-1H-pyrazol-4-yl)-7-oxo-6,7-dihydro-1H-pyrrolo[2,3-c]pyridin-4-yl]spiro[cyclopropane-1,3′-indol]-2′(1H)-one] | 531
2 | Cc1nn(C)cc1-c1cc2c([C@@H]3C[C@@]34C(=O)N(C)c3ccccc34)cn(C)c(=O)c2[nH]1 (racemic) [Example 36, rac-(1R,2S)-2-[2-(1,3-dimethyl-1H-pyrazol-4-yl)-6-methyl-7-oxo-6,7-dihydro-1H-pyrrolo[2,3-c]pyridin-4-yl]-1′-methylspiro[cyclopropane-1,3′-indol]-2′(1H)-one] | > 13000
3 | CN1C(=O)[C@@]2(C[C@H]2c2cn(C)c(=O)c3[nH]c(-c4cc[nH]n4)cc23)c2ccccc21 (racemic) [Example 37, rac-(1R,2S)-1′-methyl-2-[6-methyl-7-oxo-2-(1H-pyrazol-3-yl)-6,7-dihydro-1H-pyrrolo[2,3-c]pyridin-4-yl]spiro[cyclopropane-1,3′-indol]-2′(1H)-one] | 1250
4 | CN1C(=O)[C@@]2(C[C@@H]2c2cn(C)c(=O)c3[nH]c(-c4cc[nH]n4)cc23)c2ccccc21 (racemic) [Example 38, rac-(1R,2R)-1′-methyl-2-[6-methyl-7-oxo-2-(1H-pyrazol-3-yl)-6,7-dihydro-1H-pyrrolo[2,3-c]pyridin-4-yl]spiro[cyclopropane-1,3′-indol]-2′(1H)-one] | > 13000
5 | Cc1cc(-c2cc3c([C@@H]4C[C@@]45C(=O)N(C)c4ccccc45)cn(C)c(=O)c3[nH]2)on1 (racemic) [Example 39, rac-(1R,2S)-1′-methyl-2-[6-methyl-2-(3-methyl-1,2-oxazol-5-yl)-7-oxo-6,7-dihydro-1H-pyrrolo[2,3-c]pyridin-4-yl]spiro[cyclopropane-1,3′-indol]-2′(1H)-one] | 885
6 | Cc1cc(-c2cc3c([C@H]4C[C@@]45C(=O)N(C)c4ccccc45)cn(C)c(=O)c3[nH]2)on1 (racemic) [Example 40, rac-(1R,2R)-1′-methyl-2-[6-methyl-2-(3-methyl-1,2-oxazol-5-yl)-7-oxo-6,7-dihydro-1H-pyrrolo[2,3-c]pyridin-4-yl]spiro[cyclopropane-1,3′-indol]-2′(1H)-one] | > 13000
7 | CN1C(=O)[C@@]2(C[C@H]2c2cn(C)c(=O)c3[nH]c(-c4nccn4C)cc23)c2ccccc21 (racemic) [Example 41, rac-(1R,2S)-1′-methyl-2-[6-methyl-2-(1-methyl-1H-imidazol-2-yl)-7-oxo-6,7-dihydro-1H-pyrrolo[2,3-c]pyridin-4-yl]spiro[cyclopropane-1,3′-indol]-2′(1H)-one] | 1490
8 | CN1C(=O)[C@@]2(C[C@H]2c2cn(C)c(=O)c3[nH]c(-c4ncco4)cc23)c2ccccc21 (racemic) [Example 42, rac-(1R,2S)-1′-methyl-2-[6-methyl-2-(1,3-oxazol-2-yl)-7-oxo-6,7-dihydro-1H-pyrrolo[2,3-c]pyridin-4-yl]spiro[cyclopropane-1,3′-indol]-2′(1H)-one] | 2820
9 | CN1C(=O)[C@@]2(C[C@H]2c2cn(C)c(=O)c3[nH]c(-c4cn(C)cn4)cc23)c2ccccc21 (racemic) [Example 43, rac-(1R,2S)-1′-methyl-2-[6-methyl-2-(1-methyl-1H-imidazol-4-yl)-7-oxo-6,7-dihydro-1H-pyrrolo[2,3-c]pyridin-4-yl]spiro[cyclopropane-1,3′-indol]-2′(1H)-one] | 1840
10 | CN1C(=O)[C@@]2(C[C@H]2c2cn(C)c(=O)c3[nH]c(-c4cncn4C)cc23)c2ccccc21 (racemic) [Example 44, rac-(1R,2S)-1′-methyl-2-[6-methyl-2-(1-methyl-1H-imidazol-5-yl)-7-oxo-6,7-dihydro-1H-pyrrolo[2,3-c]pyridin-4-yl]spiro[cyclopropane-1,3′-indol]-2′(1H)-one] | 1300
11 | CN1C(=O)[C@@]2(C[C@H]2c2cn(C)c(=O)c3[nH]c(-c4ccccn4)cc23)c2ccccc21 (racemic) [Example 45, rac-(1R,2S)-1′-methyl-2-[6-methyl-7-oxo-2-(pyridin-2-yl)-6,7-dihydro-1H-pyrrolo[2,3-c]pyridin-4-yl]spiro[cyclopropane-1,3′-indol]-2′(1H)-one] | > 13000
12 | Cc1ccnc(-c2cc3c([C@@H]4C[C@@]45C(=O)N(C)c4ccccc45)cn(C)c(=O)c3[nH]2)c1 (racemic) [Example 46, rac-(1R,2S)-1′-methyl-2-[6-methyl-2-(4-methylpyridin-2-yl)-7-oxo-6,7-dihydro-1H-pyrrolo[2,3-c]pyridin-4-yl]spiro[cyclopropane-1,3′-indol]-2′(1H)-one] | > 13000
13 | CN1C(=O)[C@@]2(C[C@H]2c2cn(C)c(=O)c3[nH]c(-c4cccnc4)cc23)c2ccccc21 (racemic) [Example 47, rac-(1R,2S)-1′-methyl-2-[6-methyl-7-oxo-2-(pyridin-3-yl)-6,7-dihydro-1H-pyrrolo[2,3-c]pyridin-4-yl]spiro[cyclopropane-1,3′-indol]-2′(1H)-one] | 2620
14 | CN1C(=O)[C@@]2(C[C@H]2c2cn(C)c(=O)c3[nH]c(-c4ccncc4)cc23)c2ccccc21 (racemic) [Example 50, rac-(1R,2S)-1′-methyl-2-[6-methyl-7-oxo-2-(pyridin-4-yl)-6,7-dihydro-1H-pyrrolo[2,3-c]pyridin-4-yl]spiro[cyclopropane-1,3′-indol]-2′(1H)-one] | 1280
15 | CN1C(=O)[C@@]2(C[C@H]2c2cn(C)c(=O)c3[nH]c(-c4ccnc(C(F)(F)F)c4)cc23)c2ccccc21 (racemic) [Example 51, rac-(1R,2S)-1′-methyl-2-{6-methyl-7-oxo-2-[2-(trifluoromethyl)pyridin-4-yl]-6,7-dihydro-1H-pyrrolo[2,3-c]pyridin-4-yl}spiro[cyclopropane-1,3′-indol]-2′(1H)-one] | 4680
16 | CN1C(=O)[C@@]2(C[C@H]2c2cn(C)c(=O)c3[nH]c(-c4cncnc4)cc23)c2ccccc21 (racemic) [Example 54, rac-(1R,2S)-1′-methyl-2-[6-methyl-7-oxo-2-(pyrimidin-5-yl)-6,7-dihydro-1H-pyrrolo[2,3-c]pyridin-4-yl]spiro[cyclopropane-1,3′-indol]-2′(1H)-one] | 1080
17 | CN1C(=O)[C@@]2(C[C@H]2c2cn(C)c(=O)c3[nH]c(-c4ccncn4)cc23)c2ccccc21 (racemic) [Example 55, rac-(1R,2S)-1′-methyl-2-[6-methyl-7-oxo-2-(pyrimidin-4-yl)-6,7-dihydro-1H-pyrrolo[2,3-c]pyridin-4-yl]spiro[cyclopropane-1,3′-indol]-2′(1H)-one] | 3420
18 | CN1C(=O)[C@@]2(C[C@H]2c2cn(C)c(=O)c3[nH]c(-c4ccnnc4)cc23)c2ccccc21 (racemic) [Example 56, rac-(1R,2S)-1′-methyl-2-[6-methyl-7-oxo-2-(pyridazin-4-yl)-6,7-dihydro-1H-pyrrolo[2,3-c]pyridin-4-yl]spiro[cyclopropane-1,3′-indol]-2′(1H)-one] | 2760
19 | CN1C(=O)[C@@]2(C[C@@]2(C)c2cn(C)c(=O)c3[nH]c(C(=O)NC4CC4)cc23)c2ccc(OC(F)(F)F)cc21 (racemic) [Example 58, rac-N-cyclopropyl-4-[(1R,2S)-1′,2-dimethyl-2′-oxo-6′-(trifluoromethoxy)-1′,2′-dihydrospiro[cyclopropane-1,3′-indol]-2-yl]-6-methyl-7-oxo-6,7-dihydro-1H-pyrrolo[2,3-c]pyridine-2-carboxamide] | > 13000
20 | CN1C(=O)[C@]2(C[C@@H]2c2cn(C)c(=O)c3[nH]c(C(=O)O)cc23)c2ccccc21 (single isomer, unassigned) [Example 6] | > 13000
21 | CN1C(=O)[C@@]2(C[C@H]2c2cn(C)c(=O)c3[nH]c(C(=O)O)cc23)c2ccccc21 (single isomer, unassigned) [Example 7] | > 13000
22 | CN1C(=O)[C@@]2(C[C@H]2c2cn(C)c(=O)c3[nH]c(C(=O)NC4CC4)cc23)c2cc(F)ccc21 (single isomer, unassigned) [Example 18] | > 13000
23 | Cn1cc([C@H]2C[C@]23C(=O)Nc2ccccc23)c2cc(C(=O)NC3CC3)[nH]c2c1=O (single isomer, unassigned) [Example 20] | 7340
24 | Cn1cc([C@@H]2C[C@@]23C(=O)Nc2ccccc23)c2cc(C(=O)NC3CC3)[nH]c2c1=O (single isomer, unassigned) [Example 21] | > 13000
25 | CN1C(=O)[C@@]2(C[C@H]2c2cn(C)c(=O)c3[nH]c(C(=O)NC4CC4)cc23)c2ccccc21 [Example 4, N-cyclopropyl-6-methyl-4-[(1R,2S)-1′-methyl-2′-oxo-1′,2′-dihydrospiro[cyclopropane-1,3′-indol]-2-yl]-7-oxo-6,7-dihydro-1H-pyrrolo[2,3-c]pyridine-2-carboxamide] | > 13000
26 | CN1C(=O)[C@]2(C[C@@H]2c2cn(C)c(=O)c3[nH]c(C(=O)NC4CC4)cc23)c2cc(F)ccc21 [Example 17, N-cyclopropyl-4-[(1S,2R)-5′-fluoro-′-methyl-2′-oxo-1′,2′-dihydrospiro[cyclopropane-1,3′-indol]-2-yl]-6-methyl-7-oxo-6,7-dihydro-1H-pyrrolo[2,3-c]pyridine-2-carboxamide] | 5040
